Results as given in US9744158B2, “Veterinary antiprolactinic composition for ruminants” (CEVA SANTE ANIMALE, priority 2008, dated 2017).

Tested on: gestating cows
Test: Clinical safety study (abortion, fetal toxicity) in gestating ruminants (Example 3)
Type: in vivo
Settings: two injections at interval of 48 hours, 25 mcg/kg
Protocol: This study aims to show the absence of risks such as abortions and fetus toxicity during the use of cabergoline in gestating ruminants even in the case of an overdose of cabergoline based veterinary compositions according to the regimen prescribed in the present invention. Groups of cows at different gestating stages receive the treatment at different doses: • 3 months of gestation (6 animals), dose of 15 mcg/kg—2 injections at an interval of 48 hours • 7 to 8 months of gestation: (5 animals), dose of 15 mcg/kg—2 injections at an interval of 48 hours • 6.5 to 7.5 months of gestation: (11 animals), dose of 25 mcg/kg—2 injections an interval of 48 hours
The formulation described in the Example 1, containing 500 mcg/ml of cabergoline in injectable solution is used in this study.
Regular clinical exams were conducted during a period lasting from 7 days before the treatment to 15 days after the treatment:
Daily general inspection and abortions,
Clinical exam of the genital tract including transrectal palpation and an ultrasound, in order to evaluate the suffering and fetal viability.
Blood samplings are conducted one day before the treatment and 15 days after the treatment to follow the plasmatic concentrations of different hormones and proteins indicating the health of the placenta and fetus, such as progesterone, estrone sulfate and the PAG (Pregnancy Associated Glycoprotein). […]

## C=CCN1C[C@H](C(=O)N(CCCN(C)C)C(=O)NCC)C[C@@H]2c3cccc4[nH]cc(c34)C[C@H]21 [cabergoline, N-[3-(Dimethylamino)propyl]-N-[(ethylamino)carbonyl]-6-(2-propenyl)-8 g-ergoline-8-carboxamide]
  abortions: do not provoke any abortions
  harmful effect on the gestation, viability and health of the new born calves: neither do they have any harmful effect
